Source: article PMC6120666 (The EMBO Journal, 2018)

Tests used:
Experiment in all cases: Drug affinity chromatography with c-ponatinib and LC-MS/MS (ponatinib interactome)
Type in all cases: binding
[1] = target: T1, proteins of U2OS cell lysate (Homo sapiens, UniProt O00487); conditions: PSMD14, 26S proteasome non-ATPase regulatory subunit 14
T1 construct: Proteins enriched by c-ponatinib from U2OS cell lysate; endogenous in cells; host or cells: U2OS cell lysate
Summary of the method: (§1)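 U2OS cell lysate in NP-40 lysis buffer (2 mg protein per pulldown) was incubated with amine-derivatized NHS beads for 2 h at 4 °C. Bound proteins were washed, eluted with 100 mM formic acid, reduced, alkylated and trypsin-digested, then identified by nano-UPLC–MS/MS on Orbitrap instruments with a 60 min gradient.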

[2] = target: T2, proteins of U2OS cell lysate (Homo sapiens, UniProt P08670); conditions: VIM, Vimentin
T2 construct: Proteins enriched by c-ponatinib from U2OS cell lysate; endogenous in cells; host or cells: U2OS cell lysate
Summary of the method: as §1

[3] = target: T3, proteins of U2OS cell lysate (Homo sapiens, UniProt P09038); conditions: FGF2, Fibroblast growth factor 2
T3 construct: Proteins enriched by c-ponatinib from U2OS cell lysate; endogenous in cells; host or cells: U2OS cell lysate
T3 sequence (P09038 143-288): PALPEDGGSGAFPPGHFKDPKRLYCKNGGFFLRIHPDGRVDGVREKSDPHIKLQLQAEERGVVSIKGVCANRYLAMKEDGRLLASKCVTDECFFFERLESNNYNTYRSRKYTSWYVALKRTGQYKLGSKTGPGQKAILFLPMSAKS
Summary of the method: as §1

[4] = target: T4, proteins of U2OS cell lysate (Homo sapiens, UniProt P09382); conditions: LGALS1, Galectin-1
T4 construct: Proteins enriched by c-ponatinib from U2OS cell lysate; endogenous in cells; host or cells: U2OS cell lysate
T4 sequence (P09382 whole entry): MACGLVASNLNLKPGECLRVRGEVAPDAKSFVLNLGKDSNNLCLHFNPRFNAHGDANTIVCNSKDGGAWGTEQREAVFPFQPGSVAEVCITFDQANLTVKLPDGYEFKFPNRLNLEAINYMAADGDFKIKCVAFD
Summary of the method: as §1

[5] = target: T5, proteins of U2OS cell lysate (Homo sapiens, UniProt P11441); conditions: UBL4A, Ubiquitin-like protein 4A
T5 construct: Proteins enriched by c-ponatinib from U2OS cell lysate; endogenous in cells; host or cells: U2OS cell lysate
T5 sequence (P11441 whole entry): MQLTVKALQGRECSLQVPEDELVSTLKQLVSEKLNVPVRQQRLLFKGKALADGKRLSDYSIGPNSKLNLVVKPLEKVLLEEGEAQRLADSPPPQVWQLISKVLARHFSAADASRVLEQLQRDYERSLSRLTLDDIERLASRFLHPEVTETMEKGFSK
Summary of the method: as §1

[6] = target: T6, proteins of U2OS cell lysate (Homo sapiens, UniProt P16615); conditions: ATP2A2, Sarcoplasmic/endoplasmic reticulum calcium ATPase 2
T6 construct: Proteins enriched by c-ponatinib from U2OS cell lysate; endogenous in cells; host or cells: U2OS cell lysate
T6 sequence (P16615 whole entry): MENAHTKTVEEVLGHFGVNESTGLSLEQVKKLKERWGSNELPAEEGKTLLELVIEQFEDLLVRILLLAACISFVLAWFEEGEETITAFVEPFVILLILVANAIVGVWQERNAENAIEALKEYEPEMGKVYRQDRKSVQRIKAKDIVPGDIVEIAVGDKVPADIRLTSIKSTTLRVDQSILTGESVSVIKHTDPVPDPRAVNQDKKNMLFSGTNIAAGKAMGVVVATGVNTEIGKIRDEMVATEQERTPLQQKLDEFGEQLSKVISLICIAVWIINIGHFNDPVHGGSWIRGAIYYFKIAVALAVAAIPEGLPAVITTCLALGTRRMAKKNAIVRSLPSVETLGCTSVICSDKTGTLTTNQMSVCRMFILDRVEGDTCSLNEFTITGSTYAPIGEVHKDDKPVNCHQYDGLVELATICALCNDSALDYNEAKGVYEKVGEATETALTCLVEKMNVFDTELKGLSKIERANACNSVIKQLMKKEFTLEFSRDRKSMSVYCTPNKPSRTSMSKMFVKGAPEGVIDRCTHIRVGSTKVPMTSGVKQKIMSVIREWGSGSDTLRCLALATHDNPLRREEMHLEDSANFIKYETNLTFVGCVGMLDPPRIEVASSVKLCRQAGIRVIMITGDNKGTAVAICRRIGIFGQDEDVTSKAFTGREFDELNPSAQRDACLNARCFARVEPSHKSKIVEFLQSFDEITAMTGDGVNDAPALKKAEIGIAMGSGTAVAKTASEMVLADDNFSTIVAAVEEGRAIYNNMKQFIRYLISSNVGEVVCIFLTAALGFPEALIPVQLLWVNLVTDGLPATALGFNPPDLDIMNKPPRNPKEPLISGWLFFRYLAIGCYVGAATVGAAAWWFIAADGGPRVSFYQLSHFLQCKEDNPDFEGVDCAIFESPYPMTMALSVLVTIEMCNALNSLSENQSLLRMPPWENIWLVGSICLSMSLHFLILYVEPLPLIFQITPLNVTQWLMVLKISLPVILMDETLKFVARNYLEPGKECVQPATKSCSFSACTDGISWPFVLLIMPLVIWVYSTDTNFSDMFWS
Summary of the method: as §1

[7] = target: T7, proteins of U2OS cell lysate (Homo sapiens, UniProt P22234); conditions: PAICS, Multifunctional protein ADE2
T7 construct: Proteins enriched by c-ponatinib from U2OS cell lysate; endogenous in cells; host or cells: U2OS cell lysate
Summary of the method: as §1

[8] = target: T8, proteins of U2OS cell lysate (Homo sapiens, UniProt P28066); conditions: PSMA5, Proteasome subunit alpha type-5
T8 construct: Proteins enriched by c-ponatinib from U2OS cell lysate; endogenous in cells; host or cells: U2OS cell lysate
T8 sequence (P28066 whole entry): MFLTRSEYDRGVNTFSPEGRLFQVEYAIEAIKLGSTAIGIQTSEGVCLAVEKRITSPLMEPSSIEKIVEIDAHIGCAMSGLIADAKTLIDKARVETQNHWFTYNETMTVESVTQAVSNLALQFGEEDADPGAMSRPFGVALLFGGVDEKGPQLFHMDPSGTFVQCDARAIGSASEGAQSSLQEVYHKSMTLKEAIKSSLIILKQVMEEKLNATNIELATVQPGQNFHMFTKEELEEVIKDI
Summary of the method: as §1

[9] = target: T9, proteins of U2OS cell lysate (Homo sapiens, UniProt P36542); conditions: ATP5C1, ATP synthase subunit gamma, mitochondrial
T9 construct: Proteins enriched by c-ponatinib from U2OS cell lysate; endogenous in cells; host or cells: U2OS cell lysate
T9 sequence (P36542 26-298): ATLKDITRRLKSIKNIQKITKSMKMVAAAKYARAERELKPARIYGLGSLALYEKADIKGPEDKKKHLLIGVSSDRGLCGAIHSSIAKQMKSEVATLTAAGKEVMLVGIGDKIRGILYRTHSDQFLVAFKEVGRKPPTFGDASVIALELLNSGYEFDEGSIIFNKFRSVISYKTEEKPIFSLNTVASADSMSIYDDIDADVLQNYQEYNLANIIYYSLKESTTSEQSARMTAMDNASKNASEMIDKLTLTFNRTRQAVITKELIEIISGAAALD
Summary of the method: as §1

[10] = target: T10, proteins of U2OS cell lysate (Homo sapiens, UniProt P54753); conditions: EPHB3, Ephrin type-B receptor 3
T10 construct: Proteins enriched by c-ponatinib from U2OS cell lysate; endogenous in cells; host or cells: U2OS cell lysate
T10 sequence (P54753 34-998): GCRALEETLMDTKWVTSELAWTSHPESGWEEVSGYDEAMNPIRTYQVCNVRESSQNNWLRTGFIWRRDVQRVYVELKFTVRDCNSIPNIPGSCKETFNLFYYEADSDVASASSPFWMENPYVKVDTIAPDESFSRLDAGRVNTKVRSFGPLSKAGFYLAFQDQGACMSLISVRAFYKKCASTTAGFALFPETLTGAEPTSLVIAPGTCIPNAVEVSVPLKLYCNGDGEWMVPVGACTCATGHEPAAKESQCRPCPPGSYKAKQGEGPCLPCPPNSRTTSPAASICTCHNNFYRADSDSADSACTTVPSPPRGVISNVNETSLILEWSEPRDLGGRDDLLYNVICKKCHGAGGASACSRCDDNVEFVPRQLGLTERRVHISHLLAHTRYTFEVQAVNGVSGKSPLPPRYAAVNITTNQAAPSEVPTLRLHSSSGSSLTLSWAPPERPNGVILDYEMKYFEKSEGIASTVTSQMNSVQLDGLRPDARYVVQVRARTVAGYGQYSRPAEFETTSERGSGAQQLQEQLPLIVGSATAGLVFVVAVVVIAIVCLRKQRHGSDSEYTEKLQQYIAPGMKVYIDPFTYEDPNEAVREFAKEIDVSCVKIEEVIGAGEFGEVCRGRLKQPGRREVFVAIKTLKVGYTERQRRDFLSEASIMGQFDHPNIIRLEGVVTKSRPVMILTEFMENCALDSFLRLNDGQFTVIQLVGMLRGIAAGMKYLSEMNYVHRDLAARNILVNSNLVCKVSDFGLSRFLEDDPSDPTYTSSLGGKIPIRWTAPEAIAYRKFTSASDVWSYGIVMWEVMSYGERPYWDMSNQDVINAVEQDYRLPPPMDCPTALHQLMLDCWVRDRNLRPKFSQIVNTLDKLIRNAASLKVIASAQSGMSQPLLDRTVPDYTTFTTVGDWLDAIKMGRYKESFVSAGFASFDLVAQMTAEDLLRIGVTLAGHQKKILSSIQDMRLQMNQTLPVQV
Summary of the method: as §1

[11] = target: T11, proteins of U2OS cell lysate (Homo sapiens, UniProt P60660); conditions: MYL6, Myosin light polypeptide 6
T11 construct: Proteins enriched by c-ponatinib from U2OS cell lysate; endogenous in cells; host or cells: U2OS cell lysate
T11 sequence (P60660 whole entry): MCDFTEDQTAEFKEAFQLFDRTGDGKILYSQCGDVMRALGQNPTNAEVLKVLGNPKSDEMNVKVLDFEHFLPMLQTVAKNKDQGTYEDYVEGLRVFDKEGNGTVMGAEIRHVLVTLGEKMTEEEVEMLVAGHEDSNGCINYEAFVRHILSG
Summary of the method: as §1

[12] = target: T12, proteins of U2OS cell lysate (Homo sapiens, UniProt P62714); conditions: PPP2CB, Serine/threonine-protein phosphatase 2A catalytic subunit beta isoform
T12 construct: Proteins enriched by c-ponatinib from U2OS cell lysate; endogenous in cells; host or cells: U2OS cell lysate
T12 sequence (P62714 whole entry, canonical isoform): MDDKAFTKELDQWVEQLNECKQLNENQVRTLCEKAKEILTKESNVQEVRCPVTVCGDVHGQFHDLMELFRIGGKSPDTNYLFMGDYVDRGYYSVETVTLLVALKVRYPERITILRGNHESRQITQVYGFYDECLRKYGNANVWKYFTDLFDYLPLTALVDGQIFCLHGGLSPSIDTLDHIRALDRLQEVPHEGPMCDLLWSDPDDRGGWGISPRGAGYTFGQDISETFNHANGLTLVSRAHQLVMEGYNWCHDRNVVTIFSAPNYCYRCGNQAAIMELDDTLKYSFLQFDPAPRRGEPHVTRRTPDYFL
Summary of the method: as §1

[13] = target: T13, proteins of U2OS cell lysate (Homo sapiens, UniProt P62906); conditions: RPL10A, 60S ribosomal protein L10a
T13 construct: Proteins enriched by c-ponatinib from U2OS cell lysate; endogenous in cells; host or cells: U2OS cell lysate
Summary of the method: as §1

[14] = target: T14, proteins of U2OS cell lysate (Homo sapiens, UniProt Q13268); conditions: DHRS2, Dehydrogenase/reductase SDR family member 2, mitochondrial
T14 construct: Proteins enriched by c-ponatinib from U2OS cell lysate; endogenous in cells; host or cells: U2OS cell lysate
T14 sequence (Q13268 24-280): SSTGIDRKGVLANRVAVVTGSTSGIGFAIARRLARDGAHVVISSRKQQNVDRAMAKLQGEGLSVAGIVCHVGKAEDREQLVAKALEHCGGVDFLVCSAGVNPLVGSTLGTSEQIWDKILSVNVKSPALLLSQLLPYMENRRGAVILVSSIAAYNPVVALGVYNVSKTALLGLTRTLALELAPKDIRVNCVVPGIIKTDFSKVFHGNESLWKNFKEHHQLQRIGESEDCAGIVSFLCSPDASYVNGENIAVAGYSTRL
Summary of the method: as §1

[15] = target: T15, proteins of U2OS cell lysate (Homo sapiens, UniProt Q14165); conditions: MLEC, Malectin
T15 construct: Proteins enriched by c-ponatinib from U2OS cell lysate; endogenous in cells; host or cells: U2OS cell lysate
T15 sequence (Q14165 29-292): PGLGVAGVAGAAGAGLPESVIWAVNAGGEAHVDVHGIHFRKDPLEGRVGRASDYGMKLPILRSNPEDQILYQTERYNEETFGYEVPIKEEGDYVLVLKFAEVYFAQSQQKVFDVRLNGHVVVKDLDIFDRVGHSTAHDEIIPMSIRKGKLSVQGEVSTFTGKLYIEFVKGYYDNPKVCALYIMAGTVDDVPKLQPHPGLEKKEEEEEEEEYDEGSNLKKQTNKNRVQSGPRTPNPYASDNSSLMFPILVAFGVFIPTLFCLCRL
Summary of the method: as §1

[16] = target: T16, proteins of U2OS cell lysate (Homo sapiens, UniProt Q86UP2); conditions: KTN1, Kinectin
T16 construct: Proteins enriched by c-ponatinib from U2OS cell lysate; endogenous in cells; host or cells: U2OS cell lysate
Summary of the method: as §1

[17] = target: T17, proteins of U2OS cell lysate (Homo sapiens, UniProt Q92522); conditions: H1FX, Histone H1x
T17 construct: Proteins enriched by c-ponatinib from U2OS cell lysate; endogenous in cells; host or cells: U2OS cell lysate
T17 sequence (Q92522 whole entry): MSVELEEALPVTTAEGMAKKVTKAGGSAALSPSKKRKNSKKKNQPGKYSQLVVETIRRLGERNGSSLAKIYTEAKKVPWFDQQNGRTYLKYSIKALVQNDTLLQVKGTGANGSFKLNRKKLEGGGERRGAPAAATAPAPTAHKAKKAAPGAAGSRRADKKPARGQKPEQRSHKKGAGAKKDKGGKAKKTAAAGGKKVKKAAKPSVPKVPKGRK
Summary of the method: as §1

[18] = target: T18, proteins of U2OS cell lysate (Homo sapiens, UniProt Q9Y5L0); conditions: TNPO3, Transportin-3
T18 construct: Proteins enriched by c-ponatinib from U2OS cell lysate; endogenous in cells; host or cells: U2OS cell lysate
Summary of the method: as §1

[19] = target: T19, proteins of U2OS cell lysate (Homo sapiens, UniProt Q9UNM6); conditions: captured protein PSMD13, Rank 204
T19 construct: Proteins enriched by c-ponatinib from U2OS cell lysate; endogenous in cells; host or cells: U2OS cell lysate
T19 sequence (Q9UNM6 whole entry): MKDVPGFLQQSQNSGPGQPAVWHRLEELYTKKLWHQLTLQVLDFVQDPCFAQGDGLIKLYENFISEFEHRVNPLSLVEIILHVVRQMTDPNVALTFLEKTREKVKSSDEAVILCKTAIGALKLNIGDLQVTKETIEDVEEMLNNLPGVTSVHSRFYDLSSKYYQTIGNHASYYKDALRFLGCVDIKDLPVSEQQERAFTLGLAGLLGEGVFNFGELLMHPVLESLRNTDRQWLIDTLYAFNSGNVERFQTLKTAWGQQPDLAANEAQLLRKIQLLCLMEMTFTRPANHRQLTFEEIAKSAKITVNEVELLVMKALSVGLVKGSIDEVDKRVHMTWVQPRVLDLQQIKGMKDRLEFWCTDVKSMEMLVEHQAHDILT
Summary of the method: as §1

T1 sequence (O00487 whole entry): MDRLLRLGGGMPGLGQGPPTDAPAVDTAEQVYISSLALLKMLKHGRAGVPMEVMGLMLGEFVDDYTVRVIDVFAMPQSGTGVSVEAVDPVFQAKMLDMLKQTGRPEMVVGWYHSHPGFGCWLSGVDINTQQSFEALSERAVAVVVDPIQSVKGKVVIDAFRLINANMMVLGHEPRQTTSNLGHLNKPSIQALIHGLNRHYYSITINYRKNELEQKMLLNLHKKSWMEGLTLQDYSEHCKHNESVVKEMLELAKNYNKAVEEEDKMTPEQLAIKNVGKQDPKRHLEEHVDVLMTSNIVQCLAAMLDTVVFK

Cc1ccc(C(=O)Nc2ccc(CN3CCN(C)CC3)c(C(F)(F)F)c2)cc1C#Cc1cnc2cccnn12 [PON] was tested, and the “Average LFQ PON_WT” value [1] was 20.7842, the “Average LFQ PON_WT” value [2] was 26.7986 and the “Average LFQ PON_WT” value [3] was 20.5832. For the same compound, the “Average LFQ PON_WT” value [4] was 23.8412, the “Average LFQ PON_WT” value [5] was 20.3097 and the “Average LFQ PON_WT” value [6] was 20.9825. For the same compound, the “Average LFQ PON_WT” value [7] was 21.2772, the “Average LFQ PON_WT” value [8] was 20.0873 and the “Average LFQ PON_WT” value [9] was 21.058. For the same compound, the “Average LFQ PON_WT” value [10] was 21.3076, the “Average LFQ PON_WT” value [11] was 23.7934 and the “Average LFQ PON_WT” value [12] was 21.415. For the same compound, the “Average LFQ PON_WT” value [13] was 19.7018, the “Average LFQ PON_WT” value [14] was 24.0178 and the “Average LFQ PON_WT” value [15] was 19.5713. For the same compound, the “Average LFQ PON_WT” value [16] was 24.25, the “Average LFQ PON_WT” value [17] was 20.0616 and the “Average LFQ PON_WT” value [18] was 20.3086.

Cc1ccc(C(=O)Nc2ccc(CN3CCN(CCCN)CC3)c(C(F)(F)F)c2)cc1C#Cc1cnc2cccnn12 [c-ponatinib, reference compound] was tested, and the “Average LFQ intensity” value [19] was 21.7826.
